# Data taken from patent US20230150951A1, “2,5- OR 2,6-DISUBSTITUTED HYDROQUINONE DERIVATIVES WITH AT LEAST ONE CARBOXY, SULFO OR AMIDO GROUP USEFUL AS MEDICAMENTS” (OM PHARMA SA, priority 2020, published 2023).
# Experiments:
# Type in all cases: cell-based
# [1] = target: T1, FGF-1 (Homo sapiens, UniProt P05230); assay: FGF-1 induced sprouting of HUVEC, spheroid-based cellular angiogenesis assay; details: FGF-1 25 ng/mL preincubated with compound, 24 h
# T1 construct: purchased Peprotech 100-17A
# Outline: (§1)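 Spheroids of 400 HUVEC (passage 3–4), embedded in collagen gel, were stimulated with FGF-1, FGF-2 or VEGF-A (final 25 ng/mL) preincubated 30 min at 37°C with compound (final 1.56–100 μM).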
# [2] = target: T2, FGF-2 (Homo sapiens, UniProt P09038); assay: FGF-2 induced sprouting of HUVEC, spheroid-based cellular angiogenesis assay; details: FGF-2 25 ng/mL preincubated with compound, 24 h
# T2 construct: purchased Peprotech 100-18C
# Outline: as §1
# [3] = target: T3, VEGF-A (Homo sapiens, UniProt P15692); assay: VEGF-A induced sprouting of HUVEC, spheroid-based cellular angiogenesis assay; details: VEGF-A 25 ng/mL preincubated with compound, 24 h, read-out: VEGF-A1 IC50
# T3 construct: purchased ProQinase GmbH
# T3 sequence (P15692 27-191 isoform P15692-4): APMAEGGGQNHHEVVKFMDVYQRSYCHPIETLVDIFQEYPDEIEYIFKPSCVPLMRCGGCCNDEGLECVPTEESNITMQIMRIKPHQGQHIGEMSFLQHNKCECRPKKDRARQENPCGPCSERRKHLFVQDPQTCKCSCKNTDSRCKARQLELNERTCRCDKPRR
# Experimental: Aim of this in vitro method is to assess compounds effects on FGF-2, FGF-1, or VEGF-A induced sprouting of human umbilical vein endothelial cells (HUVEC) in the spheroid-based cellular angiogenesis assay. Before adding the growth factors to the cells, they were preincubated with the compound. Sunitinib was tested as a control (without preincubation).
# IC50 values determined for the tested compounds are expressed in microM [μM] and the values for the inhibition of FGF-1, FGF2 and VEGF-A induced growth (sprouting) are listed after each compound in the examples after chemical characterization.
# Sprouting test was performed on the compounds dissolved in DMSO to reach 100-fold concentrated stock solutions and dissolved in culture media. Sunitinib as reference compound was provided by ProQinase GmbH. Growth factors were purchased from rhFGF-basic (FGF-2), Peprotech, New Jersey, USA, #100-18C, Lot #0415571; rhFGF-acidic (FGF-1), Peprotech, New Jersey, USA, #100-17A, Lot #031207; hVEGF-A165 (ProQinase GmbH, Freiburg, Germany; 05.02.2010) were used for stimulation of HUVEC cells growth.
# Test system: Endothelial cells from human umbilical vein (HUVEC) from pooled donors were stored frozen with 70% medium, 20% FCS, 10% DMSO at about 1×10^6 cells/ampoule. HUVEC cells, primary human umbilical vein endothelial cells (PromoCell, Heidelberg, Germany), were used after passage 3 to 4. Morphology of the cells are adherent, cobblestone-like growing as monolayer and were cultured in endothelial cell growth and basal medium (ECGM/ECBM, PromoCell). The subculture was split 1:3; every 3-5 days, seed out at ca. 1×10^4 cells/cm^2 and incubated at 37° C. with 5% CO2 with a doubling time 24-48 hours
# Dilution of test compounds: 100× concentrated solutions (concerning to the final assay concentrations) of each test compound were prepared with the appropriate solvent (in DMSO or in water). These 100×compound solutions were further diluted in endothelial cell growth and basal medium (ECBM) 1:7.5 to get a 13.33× concentrated solution. 75 μl of the 13.33×solution was subsequently mixed with 25 μl of 40× concentrated stimulus (solved in ECBM), resulting in a 10×concentrated stimulus/compound mixture. This mixture (100 μl) was incubated for 30 min at 37° C. and then added to 900 μl gel, containing the HUVEC spheroids (resulting in the final assay concentration).
# Test method: the experiments were pursued in modification of the originally published protocol (Korff and Augustin: J Cell Sci 112: 3249-58, 1999). In brief, spheroids were prepared as described (Korff and Augustin: J Cell Biol 143: 1341-52, 1998) by pipetting 400 HUVEC in a hanging drop on plastic dishes to allow overnight spheroid aggregation. 50 HUVEC spheroids were then seeded in 0.9 ml of a collagen gel and pipetted into individual wells of a 24 well plate to allow polymerization. The test compounds were preincubated with the growth factors (FGF-1, FGF-2 or VEGF-A final concentration 25 ng/mL) in a 10-fold concentrated solution and subsequently, 100 μl of this solution was added on top of the polymerized gel. All compounds were diluted in solvent (DMSO or water) as 100×stocks first (which means 100×stocks of each final assay concentration were prepared in solvent). Subsequently, these stocks were further diluted in medium (resulting in the 13.33×stocks of each final assay concentration) with final concentrations tested: 100, 50, 25, 12.5, 6.25, 3.13 and 1.56×10^−6 M). Plates were incubated at 37° C. for 24 hours and fixed by adding 4% PFA (Roth, Karlsruhe, Germany).
# Quantification of growth factor inhibition: sprouting intensity of HUVEC spheroids treated with the growth factor and the inhibitors were quantitated by an image analysis system determining the cumulative sprout length per spheroid (CSL).
# [4] = target: T4, VEGFR-2 (Homo sapiens, UniProt P35968); assay: VEGF-165 induced phosphorylation of VEGF-Receptor on HUVEC; details: HUVEC preincubated 60 min, VEGF165 25 ng/mL 2 min; read-out: VEGFR-Phosphorylation inhibition IC50
# T4 construct: endogenous in cells; host or cells: primary HUVEC
# [5] = tested on: Human neutrophils; assay: Inhibition of ROS production in human neutrophils (isoluminol chemiluminescence); details: Homo sapiens, Neutrophil, fMLP+TNF-α stimulated PMN
# Outline: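 Neutrophils from healthy-donor buffy coats (3×10^6/ml in HBSS with Ca/Mg) pre-incubated 30 min at 37° C with compound (0.1–10 μM), primed with TNF-α 20 ng/ml for 10 min, then added to fibrinogen-coated wells. Isoluminol/HRP chemiluminescence recorded every 25 sec for 250 sec after fMLP (1 μM), background-subtracted.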
# [6] = tested on: Human neutrophils; assay: Neutrophil adhesion under static conditions; details: fMLP-stimulated adhesion to fibrinogen; method: 40 μM and 80 μM, concentration of the value not stated
# Outline: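 Donor buffy-coat neutrophils (3×10^6/ml, PBS with Ca/Mg, 10% FCS, pH 7.2) preincubated 30 min at 37° C with 40 μM or 80 μM compound, then stimulated 1 min at 37° C with 1 nM fMLP on fibrinogen-coated glass. Adherent cells fixed and counted by computer; mean ± SD, unpaired t-test.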
# T1 sequence (P05230 whole entry): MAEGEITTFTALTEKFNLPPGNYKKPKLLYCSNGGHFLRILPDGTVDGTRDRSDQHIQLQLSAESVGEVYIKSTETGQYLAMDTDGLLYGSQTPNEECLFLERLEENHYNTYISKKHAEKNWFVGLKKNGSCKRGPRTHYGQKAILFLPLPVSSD
# T2 sequence (P09038 134-288): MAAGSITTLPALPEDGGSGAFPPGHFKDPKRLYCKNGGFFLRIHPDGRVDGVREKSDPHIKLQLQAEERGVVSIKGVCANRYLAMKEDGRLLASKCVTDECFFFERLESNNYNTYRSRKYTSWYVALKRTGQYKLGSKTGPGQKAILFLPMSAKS
# T4 sequence (P35968 20-1356): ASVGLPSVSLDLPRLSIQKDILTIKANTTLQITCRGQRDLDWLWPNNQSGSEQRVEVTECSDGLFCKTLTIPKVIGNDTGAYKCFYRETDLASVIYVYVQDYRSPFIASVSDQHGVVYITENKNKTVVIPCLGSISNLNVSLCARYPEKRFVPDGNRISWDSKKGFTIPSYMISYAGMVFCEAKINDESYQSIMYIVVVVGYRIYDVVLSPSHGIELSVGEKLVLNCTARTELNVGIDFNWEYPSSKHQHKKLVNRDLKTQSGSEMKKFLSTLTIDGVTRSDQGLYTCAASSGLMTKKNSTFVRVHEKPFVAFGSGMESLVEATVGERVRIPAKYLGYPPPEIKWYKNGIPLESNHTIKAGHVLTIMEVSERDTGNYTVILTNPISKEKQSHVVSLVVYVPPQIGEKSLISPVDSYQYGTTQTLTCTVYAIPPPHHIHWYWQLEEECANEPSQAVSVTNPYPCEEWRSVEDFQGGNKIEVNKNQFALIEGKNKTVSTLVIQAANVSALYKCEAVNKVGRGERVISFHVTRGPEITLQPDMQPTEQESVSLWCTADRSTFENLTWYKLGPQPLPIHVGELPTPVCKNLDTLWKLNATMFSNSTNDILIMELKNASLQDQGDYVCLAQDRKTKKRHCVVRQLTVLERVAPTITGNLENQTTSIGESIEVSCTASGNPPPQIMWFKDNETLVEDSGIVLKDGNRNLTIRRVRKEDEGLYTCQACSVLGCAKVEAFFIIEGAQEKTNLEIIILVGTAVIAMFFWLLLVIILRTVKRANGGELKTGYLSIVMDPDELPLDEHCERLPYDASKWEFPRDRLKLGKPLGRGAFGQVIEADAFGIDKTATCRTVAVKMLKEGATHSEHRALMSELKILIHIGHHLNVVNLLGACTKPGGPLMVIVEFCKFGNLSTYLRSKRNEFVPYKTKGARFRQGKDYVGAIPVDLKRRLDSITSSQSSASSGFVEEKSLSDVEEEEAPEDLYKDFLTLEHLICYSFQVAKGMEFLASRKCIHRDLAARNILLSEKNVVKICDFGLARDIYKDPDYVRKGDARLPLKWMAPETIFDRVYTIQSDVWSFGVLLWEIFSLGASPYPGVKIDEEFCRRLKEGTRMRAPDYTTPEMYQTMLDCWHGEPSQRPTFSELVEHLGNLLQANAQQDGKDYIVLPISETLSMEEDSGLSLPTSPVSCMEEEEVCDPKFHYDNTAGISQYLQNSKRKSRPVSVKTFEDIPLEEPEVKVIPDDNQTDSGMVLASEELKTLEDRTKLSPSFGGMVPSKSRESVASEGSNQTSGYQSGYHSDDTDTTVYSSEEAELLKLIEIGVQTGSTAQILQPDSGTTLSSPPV
Compound,IC50 [1] [µM],IC50 [2] [µM],IC50 [3] [µM],IC50 [4] [µM],IC50 [5] [µM],inhibition at 0.3 µM [5] [%],Neutrophil adhesion inhibition [6] [%]
"O=C(O)c1cccc(NC(=O)c2cc(O)c(C(=O)O)cc2O)c1 [Ia-002a, 4-(3-carboxyphenylaminocarbonyl)-2,5-dihydroxybenzoic acid]",20,59,71,5.7,0.312,42.1,27.92
"CCOC(=O)c1cc(O)c(C(=O)Nc2ccccc2-c2nnn[nH]2)cc1O [Ia-001a-Tz-E1, ethyl 4-(2-(1H-tetrazol-5-yl)phenylaminocarbonyl)-2,5-dihydroxybenzoate]",≥ 200,≥ 200,≥ 200,3.8,–,76,98.88
"O=C(O)c1cc(O)c(CSCc2cc(O)c(C(=O)O)cc2O)cc1O [IIIc-058a, 4-((2,5-Dihydroxy-4-carboxyphenyl)methylthiomethyl)-2,5-dihydroxybenzoic acid]",12,12,124,0.29,1.17,61.2,23
"O=C(O)Cc1ccccc1NC(=O)c1cc(O)cc(C(=O)O)c1O [IIa-034a, 3-(2-(carboxymethyl)phenylaminocarbonyl)-2,5-dihydroxybenzoic acid]",22,5.7,86,≥ 100,–,69.2,26.58
"O=C(O)c1ccc(NC(=O)c2cc(O)cc(C(=O)O)c2O)cc1C(=O)O [IIa-014a, 4-(3-carboxy-2,5-dihydroxybenzamido)phthalic acid]",40,61,91,17.6,–,73.9,21.5
"O=C(O)c1cc(NC(=O)c2cc(O)c(C(=O)O)cc2O)ccc1O [Ia-004a, 4-(3-carboxy-4-hydroxyphenylaminocarbonyl)-2,5-dihydroxybenzoic acid]",32,15,28,7.7,–,64.6,28.38
"O=C(O)c1cc(O)c(C(=O)Nc2ccc(O)cc2C(=O)O)cc1O [Ia-006a, 4-(2-carboxy-4-hydroxyphenylaminocarbonyl)-2,5-dihydroxybenzoic acid]",89,–,≥ 100,11.8,1.2,60.6,25.33
"O=C(O)c1ccc(C(=O)O)c(NC(=O)c2cc(O)c(C(=O)O)cc2O)c1 [Ia-012a, 2-(4-carboxy-2,5-dihydroxybenzamido)terephthalic acid]",38,36,30,≥ 100,1.85,59.5,28.5
"CCOC(=O)c1cc(O)c(C(=O)Nc2ccccc2C(=O)OCC)cc1O [Ia-001a-E2, ethyl 4-(2-(ethoxycarbonyl)phenylaminocarbonyl)-2,5-dihydroxybenzoate]",9.2,≥ 200,123,1.25,2.58,51.5,50.5
"O=C(O)c1cc(O)c(C(=O)Nc2cccc(-c3nnn[nH]3)c2)cc1O [Ia-002a-Tz, 4-(3-(1H-tetrazol-5-yl)phenyl-aminocarbonyl)-2,5-dihydroxybenzoic acid]",10,53,57,≥ 100,1.86,66.6,38.5

# More lines, main results first:
IC50 [1] [µM],IC50 [2] [µM],IC50 [3] [µM],IC50 [4] [µM],IC50 [5] [µM],Compound,inhibition at 0.3 µM [5] [%],Neutrophil adhesion inhibition [6] [%]
≥ 150,124,210,≥ 100,2.5,"O=C(O)c1cc(O)c(C(=O)NCc2ccccc2C(=O)O)cc1O [Ia-053a, 4-(2-Carboxyphenylmethylaminocarbonyl)-2,5-dihydroxybenzoic acid]",52.9,18.67
34,207,198,10,0.66,"O=C(O)c1cc(O)c(C(=O)NC(Cc2ccc(O)c(O)c2)C(=O)O)cc1O (stereo not drawn) [Ia-035a-3, 4-(1-Carboxy-2-(3,4-dihydroxyphenyl)ethylaminocarbonyl)-2,5-dihydroxybenzoic acid]",79.6,22
29,18,17,≥ 100,2.38,"O=C(O)c1cc(O)c(C(=O)Nc2c(C(=O)O)cccc2C(=O)O)cc1O [Ia-013a, 2-(4-carboxy-2,5-dihydroxybenzamido)isophthalic acid]",38.5,27.67
20,20,88,≥ 100,1,"O=C(O)c1cc(O)c(C(=O)Nc2ccc(C(=O)O)c(C(=O)O)c2)cc1O [Ia-014a, 4-(4-carboxy-2,5-dihydroxybenzamido)phthalic acid]",61.3,9.667
79,14,102,≥ 100,2.28,"O=C(O)Cc1ccccc1NC(=O)c1cc(O)c(C(=O)O)cc1O [Ia-034a, 4-(2-(carboxymethyl)phenylaminocarbonyl)-2,5-dihydroxybenzoic acid]",49.1,15
104,–,35,0.1,–,"COC(=O)c1cc(NC(=O)c2cc(O)c(C(=O)Nc3ccccc3-c3nnn[nH]3)cc2O)ccc1O [Ic-001a-Tz/004a-E1, methyl 5-(4-(2-(1H-tetrazol-5-yl)phenylaminocarbonyl)-2,5-dihydroxybenzamido)-2-hydroxybenzoate]",74,97.56
